What was measured:
[1] = Maximum solubility of TCPP in saline or blood; format: physicochemical
[2] = test system: cancerous cells of the lung; conditions: incubation of a cell sample for 6-24 hours with 200 μg/ml TCPP; cited from earlier work
[3] = test system: sputum cells (dysplastic, pre-cancerous and cancerous cells); test: Glass slide assay for detection of pre-cancerous and cancerous cells with TCPP (fluorescence microscopy of sputum monolayer slides vs PAP-stain cytomorphology); format: cell-based, human

## O=C(O)c1ccc(-c2c3nc(c(-c4ccc(C(=O)O)cc4)c4ccc([nH]4)c(-c4ccc(C(=O)O)cc4)c4nc(c(-c5ccc(C(=O)O)cc5)c5ccc2[nH]5)C=C4)C=C3)cc1 [TCPP]
[1]
  Maximum solubility in saline or blood: about 100 μg/mL
[2]
  Cellular uptake and localisation of TCPP: bound to the perinuclear membrane and mitochondria of neoplastic cells
[3]; 1 = Large nucleus or nuclei, low to medium fluorescence, Adenicarcinoma, squamous cell and small cell carcinoma (n = 10)
  Number of Samples with Cells having Numerical Description by TCPP Fluorescence Microscopy/Number of Samples with Cell Description by Cytmorphology: 6/10
[3]; 1 = Large nucleus or nuclei, low to medium fluorescence, Carcinoma in situ (n = 11)
  Number of Samples with Cells having Numerical Description by TCPP Fluorescence Microscopy/Number of Samples with Cell Description by Cytmorphology: 10/11
[3]; 1 = Large nucleus or nuclei, low to medium fluorescence, Mild dysplasia (n = 12)
  Number of Samples with Cells having Numerical Description by TCPP Fluorescence Microscopy/Number of Samples with Cell Description by Cytmorphology: 12/12
[3]; 1 = Large nucleus or nuclei, low to medium fluorescence, Moderate dysplasia (n = 9)
  Number of Samples with Cells having Numerical Description by TCPP Fluorescence Microscopy/Number of Samples with Cell Description by Cytmorphology: 9/9
[3]; 1 = Large nucleus or nuclei, low to medium fluorescence, Negative or metaplastic (n = 10)
  Number of Samples with Cells having Numerical Description by TCPP Fluorescence Microscopy/Number of Samples with Cell Description by Cytmorphology: 3/10
[3]; 1 = Large nucleus or nuclei, low to medium fluorescence, Severe dysplasia (n = 8)
  Number of Samples with Cells having Numerical Description by TCPP Fluorescence Microscopy/Number of Samples with Cell Description by Cytmorphology: 7/8
[3]; 2 = Symmetrical binuclear cells, medium fluorescence, Adenicarcinoma, squamous cell and small cell carcinoma (n = 10)
  Number of Samples with Cells having Numerical Description by TCPP Fluorescence Microscopy/Number of Samples with Cell Description by Cytmorphology: 2/10
[3]; 2 = Symmetrical binuclear cells, medium fluorescence, Carcinoma in situ (n = 11)
  Number of Samples with Cells having Numerical Description by TCPP Fluorescence Microscopy/Number of Samples with Cell Description by Cytmorphology: 3/11
[3]; 2 = Symmetrical binuclear cells, medium fluorescence, Mild dysplasia (n = 12)
  Number of Samples with Cells having Numerical Description by TCPP Fluorescence Microscopy/Number of Samples with Cell Description by Cytmorphology: 5/12
[3]; 2 = Symmetrical binuclear cells, medium fluorescence, Moderate dysplasia (n = 9)
  Number of Samples with Cells having Numerical Description by TCPP Fluorescence Microscopy/Number of Samples with Cell Description by Cytmorphology: 5/9
[3]; 2 = Symmetrical binuclear cells, medium fluorescence, Negative or metaplastic (n = 10)
  Number of Samples with Cells having Numerical Description by TCPP Fluorescence Microscopy/Number of Samples with Cell Description by Cytmorphology: 0/10
[3]; 2 = Symmetrical binuclear cells, medium fluorescence, Severe dysplasia (n = 8)
  Number of Samples with Cells having Numerical Description by TCPP Fluorescence Microscopy/Number of Samples with Cell Description by Cytmorphology: 3/8
[3]; 3 = Small oval cells, medium to high fluorescence, Adenicarcinoma, squamous cell and small cell carcinoma (n = 10)
  Number of Samples with Cells having Numerical Description by TCPP Fluorescence Microscopy/Number of Samples with Cell Description by Cytmorphology: 6/10
[3]; 3 = Small oval cells, medium to high fluorescence, Carcinoma in situ (n = 11)
  Number of Samples with Cells having Numerical Description by TCPP Fluorescence Microscopy/Number of Samples with Cell Description by Cytmorphology: 6/11
[3]; 3 = Small oval cells, medium to high fluorescence, Mild dysplasia (n = 12)
  Number of Samples with Cells having Numerical Description by TCPP Fluorescence Microscopy/Number of Samples with Cell Description by Cytmorphology: 4/12
[3]; 3 = Small oval cells, medium to high fluorescence, Moderate dysplasia (n = 9)
  Number of Samples with Cells having Numerical Description by TCPP Fluorescence Microscopy/Number of Samples with Cell Description by Cytmorphology: 4/9
[3]; 3 = Small oval cells, medium to high fluorescence, Negative or metaplastic (n = 10)
  Number of Samples with Cells having Numerical Description by TCPP Fluorescence Microscopy/Number of Samples with Cell Description by Cytmorphology: 0/10
[3]; 3 = Small oval cells, medium to high fluorescence, Severe dysplasia (n = 8)
  Number of Samples with Cells having Numerical Description by TCPP Fluorescence Microscopy/Number of Samples with Cell Description by Cytmorphology: 2/8
[3]; 4 = Small round cells, low fluorescence, Adenicarcinoma, squamous cell and small cell carcinoma (n = 10)
  Number of Samples with Cells having Numerical Description by TCPP Fluorescence Microscopy/Number of Samples with Cell Description by Cytmorphology: 2/10
[3]; 4 = Small round cells, low fluorescence, Carcinoma in situ (n = 11)
  Number of Samples with Cells having Numerical Description by TCPP Fluorescence Microscopy/Number of Samples with Cell Description by Cytmorphology: 0/11
[3]; 4 = Small round cells, low fluorescence, Mild dysplasia (n = 12)
  Number of Samples with Cells having Numerical Description by TCPP Fluorescence Microscopy/Number of Samples with Cell Description by Cytmorphology: 0/12
[3]; 4 = Small round cells, low fluorescence, Moderate dysplasia (n = 9)
  Number of Samples with Cells having Numerical Description by TCPP Fluorescence Microscopy/Number of Samples with Cell Description by Cytmorphology: 0/9
[3]; 4 = Small round cells, low fluorescence, Negative or metaplastic (n = 10)
  Number of Samples with Cells having Numerical Description by TCPP Fluorescence Microscopy/Number of Samples with Cell Description by Cytmorphology: 0/10
[3]; 4 = Small round cells, low fluorescence, Severe dysplasia (n = 8)
  Number of Samples with Cells having Numerical Description by TCPP Fluorescence Microscopy/Number of Samples with Cell Description by Cytmorphology: 0/8
[3]; 5 = Multi-nucleated cells, medium fluorescence, Adenicarcinoma, squamous cell and small cell carcinoma (n = 10)
  Number of Samples with Cells having Numerical Description by TCPP Fluorescence Microscopy/Number of Samples with Cell Description by Cytmorphology: 7/10
[3]; 5 = Multi-nucleated cells, medium fluorescence, Carcinoma in situ (n = 11)
  Number of Samples with Cells having Numerical Description by TCPP Fluorescence Microscopy/Number of Samples with Cell Description by Cytmorphology: 9/11
[3]; 5 = Multi-nucleated cells, medium fluorescence, Mild dysplasia (n = 12)
  Number of Samples with Cells having Numerical Description by TCPP Fluorescence Microscopy/Number of Samples with Cell Description by Cytmorphology: 0/12
[3]; 5 = Multi-nucleated cells, medium fluorescence, Moderate dysplasia (n = 9)
  Number of Samples with Cells having Numerical Description by TCPP Fluorescence Microscopy/Number of Samples with Cell Description by Cytmorphology: 3/9
[3]; 5 = Multi-nucleated cells, medium fluorescence, Negative or metaplastic (n = 10)
  Number of Samples with Cells having Numerical Description by TCPP Fluorescence Microscopy/Number of Samples with Cell Description by Cytmorphology: 0/10
[3]; 5 = Multi-nucleated cells, medium fluorescence, Severe dysplasia (n = 8)
  Number of Samples with Cells having Numerical Description by TCPP Fluorescence Microscopy/Number of Samples with Cell Description by Cytmorphology: 6/8
[3]; 6 = Irregular anisoid cells, low to medium fluorescence, Adenicarcinoma, squamous cell and small cell carcinoma (n = 10)
  Number of Samples with Cells having Numerical Description by TCPP Fluorescence Microscopy/Number of Samples with Cell Description by Cytmorphology: 7/10
[3]; 6 = Irregular anisoid cells, low to medium fluorescence, Carcinoma in situ (n = 11)
  Number of Samples with Cells having Numerical Description by TCPP Fluorescence Microscopy/Number of Samples with Cell Description by Cytmorphology: 10/11
[3]; 6 = Irregular anisoid cells, low to medium fluorescence, Mild dysplasia (n = 12)
  Number of Samples with Cells having Numerical Description by TCPP Fluorescence Microscopy/Number of Samples with Cell Description by Cytmorphology: 0/12
[3]; 6 = Irregular anisoid cells, low to medium fluorescence, Moderate dysplasia (n = 9)
  Number of Samples with Cells having Numerical Description by TCPP Fluorescence Microscopy/Number of Samples with Cell Description by Cytmorphology: 1/9
[3]; 6 = Irregular anisoid cells, low to medium fluorescence, Negative or metaplastic (n = 10)
  Number of Samples with Cells having Numerical Description by TCPP Fluorescence Microscopy/Number of Samples with Cell Description by Cytmorphology: 0/10
[3]; 6 = Irregular anisoid cells, low to medium fluorescence, Severe dysplasia (n = 8)
  Number of Samples with Cells having Numerical Description by TCPP Fluorescence Microscopy/Number of Samples with Cell Description by Cytmorphology: 1/8
[3]; 7 = Cellular clusters, medium to high fluorescence, Adenicarcinoma, squamous cell and small cell carcinoma (n = 10)
  Number of Samples with Cells having Numerical Description by TCPP Fluorescence Microscopy/Number of Samples with Cell Description by Cytmorphology: 3/10
[3]; 7 = Cellular clusters, medium to high fluorescence, Carcinoma in situ (n = 11)
  Number of Samples with Cells having Numerical Description by TCPP Fluorescence Microscopy/Number of Samples with Cell Description by Cytmorphology: 1/11
[3]; 7 = Cellular clusters, medium to high fluorescence, Mild dysplasia (n = 12)
  Number of Samples with Cells having Numerical Description by TCPP Fluorescence Microscopy/Number of Samples with Cell Description by Cytmorphology: 0/12
[3]; 7 = Cellular clusters, medium to high fluorescence, Moderate dysplasia (n = 9)
  Number of Samples with Cells having Numerical Description by TCPP Fluorescence Microscopy/Number of Samples with Cell Description by Cytmorphology: 1/9
[3]; 7 = Cellular clusters, medium to high fluorescence, Negative or metaplastic (n = 10)
  Number of Samples with Cells having Numerical Description by TCPP Fluorescence Microscopy/Number of Samples with Cell Description by Cytmorphology: 0/10
[3]; 7 = Cellular clusters, medium to high fluorescence, Severe dysplasia (n = 8)
  Number of Samples with Cells having Numerical Description by TCPP Fluorescence Microscopy/Number of Samples with Cell Description by Cytmorphology: 0/8
[3]; 8 = Degenerated single cells, medium to high fluorescence, Adenicarcinoma, squamous cell and small cell carcinoma (n = 10)
  Number of Samples with Cells having Numerical Description by TCPP Fluorescence Microscopy/Number of Samples with Cell Description by Cytmorphology: 7/10
[3]; 8 = Degenerated single cells, medium to high fluorescence, Carcinoma in situ (n = 11)
  Number of Samples with Cells having Numerical Description by TCPP Fluorescence Microscopy/Number of Samples with Cell Description by Cytmorphology: 4/11
[3]; 8 = Degenerated single cells, medium to high fluorescence, Mild dysplasia (n = 12)
  Number of Samples with Cells having Numerical Description by TCPP Fluorescence Microscopy/Number of Samples with Cell Description by Cytmorphology: 0/12
[3]; 8 = Degenerated single cells, medium to high fluorescence, Moderate dysplasia (n = 9)
  Number of Samples with Cells having Numerical Description by TCPP Fluorescence Microscopy/Number of Samples with Cell Description by Cytmorphology: 0/9
[3]; 8 = Degenerated single cells, medium to high fluorescence, Negative or metaplastic (n = 10)
  Number of Samples with Cells having Numerical Description by TCPP Fluorescence Microscopy/Number of Samples with Cell Description by Cytmorphology: 0/10
[3]; 8 = Degenerated single cells, medium to high fluorescence, Severe dysplasia (n = 8)
  Number of Samples with Cells having Numerical Description by TCPP Fluorescence Microscopy/Number of Samples with Cell Description by Cytmorphology: 0/8
[3]; 9 = Degenerated cell clusters, medium to high fluorescence, Adenicarcinoma, squamous cell and small cell carcinoma (n = 10)
  Number of Samples with Cells having Numerical Description by TCPP Fluorescence Microscopy/Number of Samples with Cell Description by Cytmorphology: 4/10
[3]; 9 = Degenerated cell clusters, medium to high fluorescence, Carcinoma in situ (n = 11)
  Number of Samples with Cells having Numerical Description by TCPP Fluorescence Microscopy/Number of Samples with Cell Description by Cytmorphology: 1/11
[3]; 9 = Degenerated cell clusters, medium to high fluorescence, Mild dysplasia (n = 12)
  Number of Samples with Cells having Numerical Description by TCPP Fluorescence Microscopy/Number of Samples with Cell Description by Cytmorphology: 0/12

Reference: US9417241B2, “5, 10, 15, 20-tetrakis (carboxyphenyl) porphine (TCPP) and kit for use with detecting cancer” (bioAffinity Technologies, Inc., priority 2000, dated 2016)
